The record followed here is patent US20240059703A1 (AMGEN INC., priority 2021, published 2024).

The target of experiment [1] is KRAS G12C (Homo sapiens (Human), UniProt P01116, C118A/G12C). Description: 2 h coupled exchange assay. It counts as biochemical. The note with it: Avg 2 h Coupled exchange IC50, 2 h compound pre-incubation. The protocol: The term “2 h coupled exchange assay” or “20 h coupled exchange assay” as used herein refers to the assay described in the Section entitled “BIOLOGICAL EVALUATION.”

The test system of experiment [2] is A549 (human lung carcinoma) cells. Description: Cell Viability Assay (CellTiter-Glo), A549. It counts as cell-based. The method in brief:
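RPMI 1640/10% FBS; seed 1.67E+04 cells/mL, o/n 37° C., 5% CO2; serial-dilution cmpd 72 h; CellTiter-Glo luminescence vs DMSO; 4-parameter logistic fit → IC50.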
For orientation: In ATP-based viability assays light output follows the ATP content of the culture.

Experiment [3] deals with MIA PaCa-2 (human pancreatic carcinoma) cells. Description: Cell Viability Assay (CellTiter-Glo), MIA PaCa-2. The experiment is classed as cell-based. As for the experimental part:
Serially-diluted compound or DMSO was added to the cells, and plates were incubated at 37° C., 5% CO2 for 72 h. Cell viability was measured using a CellTiter-Glo® Luminescent Cell Viability Assay kit (Promega) according to the manufacturer's protocol. The luminescence signal of treated samples was normalized to DMSO control, and data were analyzed using a 4-parameter logistic model to calculate IC50 values.

Where [4] appears, read: SOS-mediated nucleotide exchange.

KRAS G12C, sequence (P01116 other isoform, or with tags, fused parts or gaps G12C/C118A): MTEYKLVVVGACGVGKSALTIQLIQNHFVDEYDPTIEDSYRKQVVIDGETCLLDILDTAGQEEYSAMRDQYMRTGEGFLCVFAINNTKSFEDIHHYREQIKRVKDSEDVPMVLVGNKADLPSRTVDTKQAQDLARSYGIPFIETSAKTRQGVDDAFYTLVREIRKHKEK

The IC50 is the point on the concentration scale where inhibition reaches its midpoint. Higher therefore signals weaker potency in that assay. Consider `C=CC(=O)N1CC2(CCN(c3nc4c(c(-c5c(O)cccc5F)c3C#N)CCC(c3scnc3C)=C4)C2)C1` (single isomer, unassigned) [Example 23-51, (M)-4-(2-fluoro-6-hydroxyphenyl)-7-(4-methyl-1,3-thiazol-5-yl)-2-(2-(2-propenoyl)-2,6-diazaspiro[3.4]octan-6-yl)-5,6-dihydro-3-quinolinecarbonitrile], for which the IC50 worked out at 127000 nM in experiment [1], 9.64 µM in experiment [2] (72 h) and 6220 nM in experiment [3] (72 h).
With `C=CC(=O)N1CC2(CCN(c3nc(-c4ccccc4F)c4ccn([C@H](CC(=O)NC)CC(C)C)c4n3)C2)C1` (single isomer, unassigned) [Example 11], the IC50 in experiment [1] (setting [4]) came to 1940 nM; in experiment [2] (Homo sapiens, A549, 72 h), 12.6 µM; in experiment [3] (Homo sapiens, MIA PaCa-2, 72 h), 1160 nM.
The like results for `C=CC(=O)N1CC2(CCN(c3nc4c(c(-c5c(C)ccc6cnn(C)c56)c3C#N)C[C@H]3C[C@@H]4C3)C2)C1` (single isomer, unassigned) [Example 13-118] were, in that order, 72 nM, > 5 µM and 279 nM.
For the compound `C=CC(=O)N1CC2(CCN(c3nc4c(c(-c5c(F)cccc5Cl)c3C#N)COC(c3scnc3C)C4)C2)C1` [Example 23-36, (7R)-4-(2-chloro-6-fluorophenyl)-7-(4-methyl-1,3-thiazol-5-yl)-2-(2-(2-propenoyl)-2,6-diazaspiro[3.4]octan-6-yl)-7,8-dihydro-5H-pyrano[4,3-b]pyridine-3-carbonitrile (7S)-4-(2-chloro-6-fluorophenyl)-7-(4-methyl-1,3-thiazol-5-yl)-2-(2-(2-propenoyl)-2,6-diazaspiro[3.4]octan-6-yl)-7,8-dihydro-5H-pyrano[4,3-b]pyridine-3-carbonitrile], the IC50 in experiment [1] turned out to be 272 nM; in experiment [2] (Homo sapiens, A549, 72 h), 9.32 µM; in experiment [3] (Homo sapiens, MIA PaCa-2, 72 h), 1530 nM.
For `C=CC(=O)N1CC2(CCN(c3nc4c(c(-c5cc(O)cc(F)c5Cl)c3C#N)C[C@H]3C[C@@H]4C3(C)C)C2)C1` [Example 12-34, (1R,9R)-6-(2-chloro-3-fluoro-5-hydroxyphenyl)-10,10-dimethyl-4-(2-(2-propenoyl)-2,6-diazaspiro[3.4]octan-6-yl)-3-azatricyclo[7.1.1.0^2,7] undeca-2,4,6-triene-5-carbonitrile], the IC50 in experiment [1] (setting [4]) was 20 nM; in experiment [2] (Homo sapiens, A549, 72 h), > 5 µM; in experiment [3] (Homo sapiens, MIA PaCa-2, 72 h), 92 nM.
For `C=C(Cl)C(=O)N1CC2(CCN(c3nc4c(c(-c5c(C)ccc6[nH]ncc56)c3C#N)CCC(C)(C)C4)C2)C1` [Example 13-3, 2-(2-(2-chloro-2-propenoyl)-2,6-diazaspiro[3.4]octan-6-yl)-7,7-dimethyl-4-(5-methyl-1H-indazol-4-yl)-5,6,7,8-tetrahydro-3-quinolinecarbonitrile] the same measures were 166 nM, 1.25 µM and 625 nM.
The like results for `C=CC(=O)N1CC2(CCN(c3nc4c(c(-c5c(C)ccc6[nH]ncc56)c3C#N)[C@@H]3CC[C@H]4C3)C2)C1` (single isomer, unassigned) [Example 14-4] were, in that order, 17 nM, > 5 µM and 9 nM.
For `C=CC(=O)N1CC2(CCN(c3nc4cc(F)ccc4c(-c4c(C)ccc5[nH]ncc45)c3C)[C@H]2C)C1` (single isomer, unassigned) [Example 2-58] the same measures were 282 nM, > 5 µM and 2080 nM.
`C=CC(=O)N1CC2(CCN(c3nc4cc(-c5scnc5C)ccc4c(-c4cccc(C)c4C)c3C#N)C2)C1` [Example 20-6, 4-(2,3-dimethylphenyl)-7-(4-methyl-1,3-thiazol-5-yl)-2-(2-(2-propenoyl)-2,6-diazaspiro[3.4]octan-6-yl)-3-quinolinecarbonitrile]: the IC50 was 124 nM in experiment [1]; > 5 µM in experiment [2] (Homo sapiens, A549, 72 h); 1550 nM in experiment [3] (Homo sapiens, MIA PaCa-2, 72 h).
The like results for `C=CC(=O)N1CC2(CCN(c3nc4cc(-c5scnc5C)ccc4c(-c4ccccc4Cl)c3C#N)C2)C1` [Example 20-1, 4-(2-chlorophenyl)-7-(4-methyl-1,3-thiazol-5-yl)-2-(2-(2-propenoyl)-2,6-diazaspiro[3.4]octan-6-yl)-3-quinolinecarbonitrile] were, in that order, 149 nM, > 5 µM and 1560 nM.
For `C=CC(=O)N1CC2(CCN(c3nc4c(c(-c5cccc6cc(O)ccc56)c3C)COC(C)(C)C4)C2)C1` (single isomer, unassigned) [Example 14-44, (P)-1-(6-(4-(6-hydroxy-1-naphthalenyl)-3,7,7-trimethyl-7,8-dihydro-5H-pyrano[4,3-b]pyridin-2-yl)-2,6-diazaspiro[3.4]octan-2-yl)-2-propen-1-one] the same measures were 71 nM, > 5 µM and 44 nM.
For `C=CC(=O)N1CC2(CCN(c3nc4ccccc4c(-c4c(C)ccc5[nH]ncc45)c3Cl)C2)C1` [Example 27-2, 1-(6-(3-chloro-4-(5-methyl-1H-indazol-4-yl)-2-quinolinyl)-2,6-diazaspiro[3.4]octan-2-yl)-2-propen-1-one] the same measures were 121 nM, > 5 µM and 2640 nM.
On to `C=CC(=O)N1CC2(CCN(c3cc4c(c(-c5c(C)ccc6[nH]ncc56)c3C#N)COCC4)C2)C1` [Example 2-95, 8-(5-methyl-1H-indazol-4-yl)-6-(2-(2-propenoyl)-2,6-diazaspiro[3.4]octan-6-yl)-3,4-dihydro-1H-2-benzopyran-7-carbonitrile], for which the IC50 in experiment [1] (setting [4]) is 88 nM; in experiment [2] (Homo sapiens, A549, 72 h), > 5 µM; in experiment [3] (Homo sapiens, MIA PaCa-2, 72 h), 792 nM.
In the case of `C=CC(=O)N1CC2(CCN(c3nc4c(c(-c5cc(O)cc6nccnc56)c3C#N)C[C@H]3C[C@@H]4C3(C)C)C2)C1` (single isomer, unassigned) [Example 12-38], the IC50 in experiment [1] (setting [4]) was 137 nM; in experiment [2] (Homo sapiens, A549, 72 h) it was > 5 µM; in experiment [3] (Homo sapiens, MIA PaCa-2, 72 h), > 5000 nM.
Consider `C=CC(=O)N1CC2(CCN(c3nc4c(c(-c5ccccc5C)c3C#N)CCC(c3scnc3C)=C4)C2)C1` [Example 23-11, 4-(2-methylphenyl)-7-(4-methyl-1,3-thiazol-5-yl)-2-(2-(2-propenoyl)-2,6-diazaspiro[3.4]octan-6-yl)-5,6-dihydro-3-quinolinecarbonitrile], for which the IC50 in experiment [1] is 53 nM; in experiment [2] (Homo sapiens, A549, 72 h), > 5 µM; in experiment [3] (Homo sapiens, MIA PaCa-2, 72 h) it was 637 nM.
For `COC/C=C/C(=O)N1CC2(CCN(c3nc4c(c(-c5c(C)ccc6[nH]ncc56)c3C#N)CCC(C)(C)C4)C2)C1` [Example 13-4, 2-(2-((2E)-4-methoxy-2-butenoyl)-2,6-diazaspiro[3.4]octan-6-yl)-7,7-dimethyl-4-(5-methyl-1H-indazol-4-yl)-5,6,7,8-tetrahydro-3-quinolinecarbonitrile], the IC50 in experiment [1] (setting [4]) was 357 nM; in experiment [2] (Homo sapiens, A549, 72 h) it was > 5 µM; in experiment [3] (Homo sapiens, MIA PaCa-2, 72 h), 1620 nM.
Turning to `C=CC(=O)N1CC2(CCN(c3nc4c(c(-c5c(C)c(Cl)cc6[nH]ncc56)c3C)COC(C)(C)C4)C2)C1` [Example 2-36, 1-(6-(4-(6-chloro-5-methyl-1H-indazol-4-yl)-3,7,7-trimethyl-7,8-dihydro-5H-pyrano[4,3-b]pyridin-2-yl)-2,6-diazaspiro[3.4]octan-2-yl)-2-propen-1-one], the IC50 is 20 nM in experiment [1] (setting [4]); > 5 µM in experiment [2] (Homo sapiens, A549, 72 h); 13 nM in experiment [3] (Homo sapiens, MIA PaCa-2, 72 h).
In the case of `C=CC(=O)N1CC2(CCN(c3nc4ccccc4c(-c4cc(O)cc5ccccc45)c3C#N)C2)C1` [Example 2-4, 4-(3-hydroxy-1-naphthalenyl)-2-(2-(2-propenoyl)-2,6-diazaspiro[3.4]octan-6-yl)-3-quinolinecarbonitrile], the IC50 in experiment [1] (setting [4]) amounted to 173 nM; in experiment [2] (Homo sapiens, A549, 72 h) it was 6.25 µM; in experiment [3] (Homo sapiens, MIA PaCa-2, 72 h) it was 2060 nM.
For `C=CC(=O)N1CC2(CCN(c3nc4c(c(-c5cccc6c(F)c(O)ccc56)c3C)COC(C)(C)C4)C2)C1` [Example 12-45, 1-(6-(4-(5-fluoro-6-hydroxy-1-naphthalenyl)-3,7,7-trimethyl-7,8-dihydro-5H-pyrano[4,3-b]pyridin-2-yl)-2,6-diazaspiro[3.4]octan-2-yl)-2-propen-1-one] the same measures were 760 nM, > 5 µM and > 5000 nM.
As to `C=CC(=O)N1CC2(CCN(c3nc4cc(-c5scnc5C)ccc4c(-c4c(O)cccc4F)c3C#N)C2)C1` (single isomer, unassigned) [Example 19-15, (M)-4-(2-fluoro-6-hydroxyphenyl)-7-(4-methyl-1,3-thiazol-5-yl)-2-(2-(2-propenoyl)-2,6-diazaspiro[3.4]octan-6-yl)-3-quinolinecarbonitrile], the IC50 in experiment [1] came to 2960 nM; in experiment [2] (72 h) it was 7.6 µM; in experiment [3] (72 h), 4560 nM.
Take `C=CC(=O)N1CC2(CCN(c3nc4c(c(-c5cccc6cc(O)ccc56)c3C)CCN(C(C)C)C4)C2)C1` [Example 18-1, 1-(6-(4-(6-Hydroxy-1-naphthalenyl)-3-methyl-7-(2-propanyl)-5,6,7,8-tetrahydro-1,7-naphthyridin-2-yl)-2,6-diazaspiro[3.4]octan-2-yl)-2-propen-1-one]: the IC50 is 37 nM in experiment [1]; > 5 µM in experiment [2] (Homo sapiens, A549, 72 h); 23 nM in experiment [3] (Homo sapiens, MIA PaCa-2, 72 h).
